# Reference: BindingDB's records for doi:10.1111/cbdd.12572 (Depaul University, 2015)
# Biological target: T1, Caspase-1 (Homo sapiens, UniProt P29466)
# T1 sequence (P29466 whole entry): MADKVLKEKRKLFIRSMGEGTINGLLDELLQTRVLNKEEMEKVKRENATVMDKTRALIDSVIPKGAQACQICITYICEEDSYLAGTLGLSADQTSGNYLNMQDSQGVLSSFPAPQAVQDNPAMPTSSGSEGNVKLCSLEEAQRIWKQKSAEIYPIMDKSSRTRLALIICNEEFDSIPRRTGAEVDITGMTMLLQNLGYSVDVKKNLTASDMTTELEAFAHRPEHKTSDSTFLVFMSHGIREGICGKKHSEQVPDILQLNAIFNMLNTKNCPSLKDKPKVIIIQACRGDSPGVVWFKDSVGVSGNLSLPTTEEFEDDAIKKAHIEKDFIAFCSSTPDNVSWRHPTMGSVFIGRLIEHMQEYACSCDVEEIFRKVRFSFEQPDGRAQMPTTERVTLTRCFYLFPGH
# Assay: Inhibition Assay
# Settings: pH 7.5; 25 °C
# Description: All assays were performed at 100 µL total volume in triplicate and monitored for 60 minutes at room temperature in a 96-well plate format in HEPES Buffer (100 mM HEPES, 100 mM NaCl, 0.1% CHAPS, 10% sucrose, pH 7.5) on a BioTek Synergy H1 plate reader. Fluorescence was measured with excitation and emission wavelengths of 380 nm and 460 nm, respectively. Caspase-1 was activated with 100 µM DTT for 30 minutes and held constant at 5 nM for all assays. WEHD-AMC was used as a substrate for all assays at 10 µM unless otherwise specified and reactions were monitored immediately upon addition to caspase-1.
row,SMILES,IC50 [nM]
1,CCCCCC#CCC#CCC#CCC#CCCCC(=O)O,> 10000
2,N#C/C(=C\c1ccc(O)c(O)c1)C(=O)OC/C=C/c1ccccc1,2230
3,"CCN(CC)C(=S)SSC(=S)N(CC)CC [1,1',1'',1'''-[disulfanediylbis(carbonothioylnitrilo)]tetraethane]",1800
4,O=c1c2ccccc2[se]n1-c1ccccc1 [2-Phenyl-benzo[d]isoselenazol-3-one],4040
5,"CC1=CC(=O)C(C(C)C)=CC1=O [2-methyl-5-(propan-2-yl)cyclohexa-2,5-diene-1,4-dione (F8)]",1080
6,CCCCCCCCCCCCCCCC(=O)OC[C@H](O)[C@H]1OC(=O)C(O)=C1O [Ascorbyl Palmitate],600
7,"CC(Cc1ccc(O)c(O)c1)C(C)Cc1ccc(O)c(O)c1 (stereo not drawn) [LOX inhibitor, N/A]",> 10000
8,"CCCCCCCCOC(=O)/C=C/c1ccc(O)c(O)c1 [Octyl (2E)‐3‐(3,4‐dihydroxyphenyl)prop‐2‐enoate (E6)]",840
9,CC1(C)CCC2=C(O1)c1ccccc1C(=O)C2=O [R115 (Reactive Blue 2)],1690
10,Cc1cc2c(C(C)C)c(O)c(O)c(C=O)c2c(O)c1-c1c(C)cc2c(C(C)C)c(O)c(O)c(C=O)c2c1O [Tash 1],1230
11,C[C@]12C=CC(=O)C=C1CC[C@@H]1C2=CC[C@]2(C)[C@@H](C(=O)CN3CCN(c4cc(N5CCCC5)nc(N5CCCC5)n4)CC3)CC[C@@H]12 [U74389G (B9)],174
12,Cc1c(C)c2c(c(C)c1O)CC[C@](C)(CN1CCN(c3cc(N4CCCC4)nc(N4CCCC4)n3)CC1)O2 [U83836E (B8)],167
13,"CC/C=C\C/C=C\C/C=C\C/C=C\C/C=C\C/C=C\CCC(=O)O [all-cis-docosa-4,7,10,13,16,19-hexaenoic acid]",6760
